From ChEMBL document CHEMBL1268904, “Potent and selective HIV-1 ribonuclease H inhibitors based on a 1-hydroxy-1,8-naphthyridin-2(1H)-one scaffold” (Bioorg Med Chem Lett, 2010)

Assays:
[1] = Lipophilicity, log P of the compound; assay type: physicochemical; details: octanol/water
[2] = system: Human immunodeficiency virus 1; assay: Antiviral activity against HIV1 HXB2 infected in human HeLaP4-2 cells assessed as inhibition of single-cycle viral replication; assay type: functional, organism-based; details: Human immunodeficiency virus 1, HXB2, HeLaP4-2
[3] = Cytotoxicity against human HeLaP4-2 cells up to 50 uM by alamar blue assay; assay type: cell-based
[4] = target: Human immunodeficiency virus type 1 reverse transcriptase (Human immunodeficiency virus 1, UniProt Q72547); assay: Inhibition of wild type HIV1 reverse transcriptase RNasH activity
[5] = Therapeutic index, ratio of CC50 for human HeLaP4-2 cells to IC50 for HIV1 HXB2 infected in human HeLaP4-2 cells; assay type: cell-based; details: HeLaP4-2 cells infected with HIV1 HXB2, read-out: Ratio CC50/IC50
[6] = system: Human immunodeficiency virus 1; assay: Selectivity ratio of IC50 for HIV1 integrase strand transfer activity to IC50 for wild type HIV1 reverse transcriptase RNasH activity
[7] = system: Human immunodeficiency virus 1; assay: Selectivity ratio of IC50 for HIV1 reverse transcriptase D443N mutant RNA-dependent DNA plymerase activity to IC50 for wild type HIV1 reverse transcriptase RNasH activity
[8] = Inhibition of HIV1 reverse transcriptase D443N mutant RNA-dependent DNA plymerase activity; parameters: species or system Human immunodeficiency virus 1
[9] = target: Human immunodeficiency virus type 1 integrase (Human immunodeficiency virus 1, UniProt Q7ZJM1); assay: Inhibition of HIV1 integrase strand transfer activity
Chain of Human immunodeficiency virus type 1 integrase (Q7ZJM1 whole entry): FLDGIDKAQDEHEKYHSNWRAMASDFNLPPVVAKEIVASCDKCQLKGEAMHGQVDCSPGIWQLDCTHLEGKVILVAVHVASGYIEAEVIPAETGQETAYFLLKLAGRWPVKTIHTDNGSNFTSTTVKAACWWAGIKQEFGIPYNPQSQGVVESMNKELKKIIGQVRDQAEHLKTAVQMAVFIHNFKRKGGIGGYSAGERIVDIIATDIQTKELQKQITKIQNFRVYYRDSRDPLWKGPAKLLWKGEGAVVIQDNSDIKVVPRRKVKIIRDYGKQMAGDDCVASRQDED

[10] = Cytotoxicity against human HeLaP4-2 cells by alamar blue assay; assay type: cell-based
MT4 = assay: Cytotoxicity against human MT4 cells at 1.5 uM; assay type: cell-based; details: mt4, 1.5 µM
[11] = system: Human immunodeficiency virus 1; assay: Antiviral activity against HIV1 3B infected in human MT4 cells assessed as decrease in viral p24 antigen level after 14 to 21 days; assay type: functional; details: Human immunodeficiency virus 1, 3B
[12] = system: Human immunodeficiency virus 1; assay: Selectivity ratio of IC50 for HIV1 integrase Q148R mutant strand transfer activity to IC50 for HIV1 integrase strand transfer activity
[13] = system: Human immunodeficiency virus 1; assay: Selectivity ratio of IC50 for HIV1 integrase N155H mutant strand transfer activity to IC50 for HIV1 integrase strand transfer activity
[14] = system: Human immunodeficiency virus 1; assay: Selectivity ratio of IC50 for HIV1 integrase Y143R mutant strand transfer activity to IC50 for HIV1 integrase strand transfer activity

SMILES	logP [1]	IC50 [2]	Activity [3]	IC50 [4]	selectivity ratio [5]	Ratio IC50 [6]	Ratio IC50 [7]	IC50 [8]	IC50 [9]	CC50 [10]	Activity (MT4)	IC95 [11]	Ratio IC50 [12]	Ratio IC50 [13]	Ratio IC50 [14]
CCOC(=O)c1c(O)c2cccnc2n(O)c1=O	2.2	2.5 µM	Non-toxic	0.11 µM											
O=c1ccc2cccnc2n1O		4.5 µM		1.4 µM	4	10	30	> 50 µM	15 µM	20 µM					
O=c1cc(-c2cccc(-c3ccccc3)c2)c2cccnc2n1O		34 µM		0.64 µM				9 µM	2.4 µM	> 50 µM					
NCc1ccccc1-c1cccc(-c2cc(=O)n(O)c3ncccc23)c1		2.8 µM		0.67 µM	3			36 µM	18 µM	9.1 µM					
NCc1ccc(-c2cccc(Cc3cc(=O)n(O)c4ncccc34)c2)cc1		0.43 µM		0.1 µM	11			11 µM	8.1 µM	4.6 µM					
NCc1ccc(-c2cccc(-c3cc(=O)n(O)c4ncccc34)c2)cc1		0.62 µM		0.13 µM	3			16 µM	7.8 µM	2.3 µM					
NCc1ccc(-c2ccc(Cc3cc(=O)n(O)c4ncccc34)cc2)cc1	0.15	0.19 µM		0.045 µM	17			13 µM	24 µM	3.3 µM	Non-toxic	0.92 µM	1.9	1.1	0.84
NCc1cccc(-c2cccc(-c3cc(=O)n(O)c4ncccc34)c2)c1		0.85 µM		0.15 µM	3			5.1 µM	9.1 µM	4.9 µM					
